The NIST ThermoML archive (doi:10.1021/je100145f)

Assay: molar heat capacity at constant pressure; xn = mol fraction of the nth substance listed
Conditions: 101 kPa, Liquid, Small sample (50 mg) DSC

N#Cc1ccccc1 [benzonitrile] + CCCCCCCC
molar heat capacity at constant pressure [J/K/mol]
Conditions | 283.15 K | 288.15 K | 293.15 K | 298.15 K | 303.15 K | 308.15 K | 313.15 K | 318.15 K
x1 = 0.0219 | 246.32 | 248.19 | 250.11 | 252.1 | 254.14 | 256.24 | 258.38 | 260.56
x1 = 0.0576 | 243.69 | 245.52 | 247.38 | 249.32 | 251.3 | 253.34 | 255.43 | 257.56
x1 = 0.1021 | 240.66 | 242.38 | 244.17 | 246 | 247.92 | 249.87 | 251.88 | 253.94
x1 = 0.1999 | 234.51 | 235.9 | 237.41 | 239.04 | 240.74 | 242.5 | 244.34 | 246.23
x1 = 0.2998 | 229.04 | 229.53 | 230.52 | 231.82 | 233.28 | 234.82 | 236.47 | 238.12
x1 = 0.4002 | 224.38 | 222.59 | 223.06 | 224.03 | 225.26 | 226.66 | 228.12 | 229.73
x1 = 0.4637 | 219.83 | 217.33 | 217.69 | 218.58 | 219.78 | 221.13 | 222.51 | –
x1 = 0.5001 | 215.93 | 213.9 | 214.32 | 215.28 | 216.5 | 217.77 | 219.26 | 220.74
x1 = 0.6001 | 203.15 | 203.61 | 204.57 | 205.76 | 207.09 | 208.41 | 209.85 | 211.38
x1 = 0.7003 | 192.17 | 193.38 | 194.65 | 195.97 | 197.33 | 198.73 | 200.16 | 201.61
x1 = 0.7999 | 182.68 | 183.92 | 185.2 | 186.53 | 187.88 | 189.25 | 190.63 | 192.02
x1 = 0.9 | 173.26 | 174.47 | 175.71 | 176.98 | 178.27 | 179.58 | 180.92 | 182.23
x1 = 0.95 | 168.41 | 169.62 | 170.83 | 172.09 | 173.36 | 174.65 | 175.96 | 177.25
x1 = 0.9801 | 165.44 | 166.62 | 167.83 | 169.07 | 170.34 | 171.61 | 172.89 | 174.17
x1 = 1 | 163.43 | 164.61 | 165.82 | 167.06 | 168.32 | 169.59 | 170.87 | 172.15
